Test results from US9527832B2, “Substituted condensed pyrimidine compounds” (GRÜNENTHAL GMBH, priority 2013, dated 2016).

Tests used:
[1] = molecular target: T1, human PDE4B1 (Homo sapiens, UniProt Q07343); assay: cAMP HTRF assay to determine the activity of hPDE4B1; type: biochemical; conditions: for inhibition at 1 µM: Percentage inhibition of PDE4B at 1 μM test concentration; for IC50: dose response measurements with eight concentrations, reported as ranges, read-out: IC50
T1 construct: host or cells: Sf9 cells
Summary of the method: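 Sf9-expressed recombinant human PDE4B1 (4.8 U) in Tris-HCl/MgCl2/DTT/Tween 20 buffer pH 7.8, with cAMP at 40 nM final, 30 min at room temperature. Reaction stopped with IBMX 1 mM; remaining cAMP detected by HTRF (665/620 nm ratio). IC50 from eight-point dose-response, n=2.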

T1 sequence (Q07343 whole entry): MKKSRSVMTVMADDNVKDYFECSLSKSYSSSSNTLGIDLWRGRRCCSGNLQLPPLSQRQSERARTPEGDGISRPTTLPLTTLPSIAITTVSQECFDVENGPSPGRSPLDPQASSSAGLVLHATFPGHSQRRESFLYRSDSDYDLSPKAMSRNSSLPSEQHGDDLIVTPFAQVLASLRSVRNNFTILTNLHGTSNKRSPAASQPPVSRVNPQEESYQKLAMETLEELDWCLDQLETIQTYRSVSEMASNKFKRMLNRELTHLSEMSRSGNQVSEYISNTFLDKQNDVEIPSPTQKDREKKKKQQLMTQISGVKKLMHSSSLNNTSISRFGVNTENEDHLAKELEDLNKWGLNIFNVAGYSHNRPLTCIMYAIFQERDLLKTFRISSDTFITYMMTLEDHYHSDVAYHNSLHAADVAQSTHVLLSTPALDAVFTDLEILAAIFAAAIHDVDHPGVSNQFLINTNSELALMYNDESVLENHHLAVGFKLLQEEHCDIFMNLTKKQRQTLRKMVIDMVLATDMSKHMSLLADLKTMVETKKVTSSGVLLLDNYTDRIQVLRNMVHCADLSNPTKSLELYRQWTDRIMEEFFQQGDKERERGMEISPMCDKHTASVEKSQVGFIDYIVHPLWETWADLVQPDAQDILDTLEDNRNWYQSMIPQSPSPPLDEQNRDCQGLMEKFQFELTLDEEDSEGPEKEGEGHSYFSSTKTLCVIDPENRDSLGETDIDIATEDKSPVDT

## COc1ccc(-c2nc3c(c(N4CCc5cc(CC(=O)O)ccc54)n2)CS(=O)(=O)C3)cc1Cl [Compound No. 1-11, 2-(1-(2-(3-Chloro-4-methoxy-phenyl)-6,6-dioxo-5,7-dihydro-thieno[3,4-d]pyrimidin-4-yl)-2,3-dihydro-1H-indol-5-yl)acetic acid]
[1]
  inhibition at 1 µM: 100%
  IC50: < 100 nM
other
  melting point: 245 to 247 °C

## COc1ccc(-c2nc3c(c(N4CCc5cc(CC(=O)O)ccc54)n2)CS(=O)(=O)C3)cc1 [Compound No. 1-12, 2-(1-(2-(4-Methoxyphenyl)-6,6-dioxo-5,7-dihydro-thieno[3,4-d]pyrimidin-4-yl)-2,3-dihydro-1H-indol-5-yl)acetic acid]
[1]
  inhibition at 1 µM: 108%
  IC50: < 100 nM
other
  melting point: 239 to 243 °C

## O=C(COc1ccc2c(c1)N(c1nc(-c3ccc(Cl)s3)nc3c1CCC3)CC2)N1CCCC1 [Compound No. 2-142, 2-((1-(2-(5-Chlorothiophen-2-yl)-6,7-dihydro-5H-cyclopenta[d]pyrimidin-4-yl)indolin-6-yl)oxy)-1-(pyrrolidin-1-yl)ethanone]
[1]
  inhibition at 1 µM: 61%
  IC50: 100 to 1000 nM
other
  melting point: 209 to 212 °C
